Measured values as given in patent publication US20170101431A1, “NUCLEOSIDE DERIVATIVES FOR THE TREATMENT OF CANCER” (IDENIX PHARMACEUTICALS LLC, priority 2014, published 2017).
Read-outs that look alike come from different tables or passages of the source. Values belong to the compound of their own block, whether it stands above or below them.

Key:
[1] = system: AML samples (live leukemic cells from bone marrow or peripheral blood of patients); experiment: Ex-vivo effect on AML patient samples (depletion of live leukemic cells, flow cytometry, Annexin V); format: cell-based, human
Method: Patient samples were obtained from a non-interventional and prospective study. The study included samples from adult patients over 18 years of age who were diagnosed with Acute Myeloid Leukemia (AML).
In one embodiment, the method of data acquisition was performed as follows: on day 1 bone marrow (BM) or peripheral blood (PB) patient sample was received. A small part was separated from the rest of the sample for validation, while the majority of the sample was diluted with culture media and plated into 96-well plates previously prepared with the desired compounds and compound combinations, e.g., a compound or compound combination described herein. The number of live leukemic cells seeded in each well was fixed between 8000 and 32000, depending on the percentage of leukemic cells for each sample. […] Antibodies were added to identify leukemic cells using a gating strategy based on FSC/SSC and expression or lack of expression of different surface markers. The monoclonal antibodies selection was performed to optimize the identification of leukemic cell in each sample.
In one embodiment, non-limiting examples of biomarkers such as the biomarkers CD34, CD45, CD117, and HLADR known as “backbone markers” for AML (van Dongen, J. J. and A. Orfao, EuroFlow: Resetting leukemia and lymphoma immunophenotyping. Basis for companion diagnostics and personalized medicine, Leukemia, 2012, 26, 1899-907) were included in the combination.
In one embodiment, antibody combinations such as CD117/CD45, CD34/CD45, and HLADR/CD45 were used. Live leukemic cells were identified by their light scatter properties (FSC^int/hi/SSC^int) in the absence of Annexin-V-FITC staining. FSC/SSC selection was performed to exclude debris. The average percentage of cell viability upon receipt of the sample was 80% and samples were only processed if the viability was greater than 50%.
In one embodiment, sample validation was performed as follows: BM and PB samples were extracted under sterile conditions and received in the laboratory within 24 hours of extraction. Initial analysis evaluated the number of pathological cells and their viability. Different volumes of sample (1 μL, 3 μL, 5 μL and 7 μL) were aliquoted in duplicate into a 96-well plate. To lyse red blood cells, 180 μL of ammonium chloride lysis solution was added to each well (2 g KHCO3, 16.58 g NH4Cl, 0.074 g Na2EDTA2.H2O, H2O to […]). Following a 10 min incubation period at 4° C., plate was centrifuged for 5 min at 1200 rpm and the supernatant removed. The lysis step was performed twice. To analyze, 20 μL of a combination of Annexin V-FITC (Immunostep, Salamanca, Spain), binding buffer (BB, 2.4 g HEPES, 8.19 g NaCl, 0.37 g Cl2Ca, H2O to […]), and the following monoclonal antibodies (mAb) were added to each well: CD117 (clone 104D2)-PE (Becton Dickinson, San Jose, Calif., US), CD34 (clone 581)-PerCP (BioLegend, San Diego, Calif., US), HLADR (clone L243)-PB (BioLegend) and CD45 (HI30)-PO (Life Technologies, Carlsbad, Calif., US) (van Dongen, J. J., et al., EuroFlow antibody panels for standardized n-dimensional flow cytometric immunophenotyping of normal, reactive and malignant leukocytes, Leukemia, 2012, 26, 1908-75). After 15 min of incubation at room temperature in the dark, a wash step was performed using binding buffer solution. The pellet was resuspended in 30 μL BB for analysis in Vivia's ExviTech© platform. Cell count and viability upon arrival were computed and the optimal volume of sample to use per well was determined.
In one embodiment, the assay was performed according to following method: the whole sample was diluted with RPMI 1640, supplemented with 20% (v/v) FBS (Thermo Scientific, Waltham, Mass., US), 2% HEPES, 1% antibiotic (Zell Shield, Labclinics, Barcelona, Spain) and 1% L-glutamine 200 mM (Lonza, Hopkinton, Mass., US) to a final volume of 60 μL per well. […]

[2] = system: CCRF-CEM; experiment: In vitro inhibition, CellTiter-Glo (CTG) assay, CCRF-CEM; format: cell-based; conditions: Homo sapiens, 72 hr exposure
Method: (§1) Cells were grown in RPMI-1640 supplemented with L-Glutamine and 10% FBS of the following cancer cell lines:
(§2) CCRF-CEM; CCRF-CEM-cytarabine resistant; HL-60;
(§3) 18, 96 well plates of each cell line were seeded with the optimized number of cells per well in a total volume of 50 μL per well. The plates were left overnight. Plate wells were seeded with 100 μL media for media control. The following day, cells were exposed to test compounds as described below. At the same time as drug exposure, a CTG assay was conducted on the 18th plate for the 0 hr count.
(§4) The compounds were added to cells and medium already on the plate to give desired final concentrations. 50 μL media were added to cell control wells, and 50 μL of mix added to vehicle control wells. 10 μM Doxorubicin was added to appropriate wells as control. Cells exposed to test compound were incubated at 37° C. for 72 hr followed by a CTG assay.
(§5) At the end of the 72 hr exposure period, plates were removed for a CellTiter-Glo (CTG) assay from a 37° C., 5% CO2 incubator and placed on the bench at room temperature for 30 mins. 100 μL of CellTiter-Glo reagent was added and mixed for 2 mins, followed by a further 10 min incubation at room temperature. Luminescence was recorded using Synergy 4.0.

[3] = system: CCRF-CEM-cytarabine resistant; experiment: In vitro inhibition, CellTiter-Glo (CTG) assay, CCRF-CEM-cytarabine resistant; format: cell-based; conditions: 72 h, 72 hr exposure
Method: as §1, §2, §3, §4, §5

[4] = system: HL-60; experiment: In vitro inhibition, CellTiter-Glo (CTG) assay, HL-60; format: cell-based; conditions: Homo sapiens, HL-60, 72 h, HL-60, 72 hr exposure
Method: as §1, §2, §3, §4, §5

[5] = Homo sapiens, 72 h, plates incubated for 72 hours
[6] = Homo sapiens, 72 h, plates incubated for 72 hours, read-out: Emax
[7] = Homo sapiens, 48 h, plates incubated for 48 hours
[8] = Homo sapiens, 48 h, plates incubated for 48 hours, read-out: Emax

EC50 [1, 5]: 1 to 10 µM
SMILES: COC(=O)[C@H](CC(C)C)NP(=O)(N[C@@H](CC(C)C)C(=O)OC)OC[C@H]1O[C@@H](n2cnc3c(N)nc(Cl)nc32)C(F)C1O (stereo partly shown)
Emax [1, 6]: > 20%

EC50 [1, 5]: 10 to 20 µM
SMILES: Nc1ccn([C@@H]2O[C@H](COP(=O)(O)NCc3ccccc3)C(O)C2O)c(=O)n1 (stereo partly shown)
Emax [1, 6]: 0 to 10%

EC50 [1, 5]: 10 to 20 µM
SMILES: CCCCCCCC/C=C/CCCCCCCC(=O)Nc1ccn([C@@H]2O[C@H](COP(=O)(N[C@@H](CC(C)C)C(=O)OC)N[C@@H](CC(C)C)C(=O)OC)C(O)C2O)c(=O)n1 (stereo partly shown)
Emax [1, 6]: > 20%

EC50 [1, 5]: 1 to 10 µM
SMILES: CC(C)(O)C(=O)SCCOP(=O)(OCCSC(=O)C(C)(C)CO)OC[C@H]1O[C@@H](N2C=NC3C(N)=NC(Cl)=NC32)[C@@H](F)[C@@H]1O (stereo partly shown)
Emax [1, 6]: 10 to 20%

EC50 [1, 7]: 1 to 10 µM
SMILES: Nc1nc(F)nc2c1ncn2[C@@H]1O[C@H](COP(=O)(O)NCc2ccccc2)[C@@H](O)[C@@H]1O
Emax [1, 8]: 0 to 10%

EC50 [1, 7]: 10 to 20 µM
SMILES: CCOC(=O)[C@H](CC(C)C)NP(=O)(O)OC[C@H]1O[C@@H](N2C=NC3C(N)=NC(F)=NC32)[C@@H](O)[C@@H]1O (stereo partly shown)
Emax [1, 8]: > 20%

EC50 [1, 7]: ≥ 20 µM
SMILES: COC(=O)[C@H](CC(C)C)NP(=O)(N[C@@H](CC(C)C)C(=O)OC)OC[C@H]1O[C@@H](N2C=NC3C(N)=NC(F)=NC32)[C@@H](O)[C@@H]1O (stereo partly shown)
Emax [1, 8]: 10 to 20%

EC50 [1, 7]: 1 to 10 µM
SMILES: COC(=O)COP(=O)(NC(CC(C)C)C(=O)OC)OC[C@H]1O[C@@H](n2cnc3c(N)nc(F)nc32)[C@@H](O)[C@@H]1O (stereo partly shown)
Emax [1, 8]: 0 to 10%

Continued, compound first:

SMILES: Nc1nc(Cl)nc2c1ncn2[C@@H]1O[C@H](COP(=O)(O)NCc2ccccc2)C(O)C1F (stereo partly shown)
EC50 [1, 5]: ≤ 1 µM
Emax [1, 6]: 0 to 10%

SMILES: CC(C)(CO)C(=O)SCCOP(=O)(NCc1ccccc1)OC[C@H]1O[C@@H](n2ccc(N)nc2=O)C(O)C1O (stereo partly shown)
EC50 [1, 5]: 10 to 20 µM
Emax [1, 6]: 0 to 10%

SMILES: CC(C)OC(=O)[C@H](C)NP(=O)(OC[C@H]1O[C@@H](n2cnc3c(N)nc(F)nc32)[C@@H](O)[C@@H]1O)Oc1ccccc1 (stereo partly shown)
EC50 ([1]; Homo sapiens, plates incubated for 48 hours): ≥ 20 µM
Emax ([1]; Homo sapiens, plates incubated for 48 hours, read-out: Emax): 0 to 10%

SMILES: C[C@H](NP(=O)(OCc1ccc([N+](=O)[O-])s1)OC[C@H]1O[C@@H](n2ccc(N)nc2=O)[C@@H](O)[C@@H]1O)C(=O)OCc1ccccc1 (single isomer, unassigned) [24f (diastereoisomer 1)]
IC50 [2]: < 1 µM
IC50 [3]: 10 to 25 µM
IC50 [4]: 10 to 25 µM

SMILES: CCOC(=O)C(C)NP1(=O)OCC2O[C@@H](n3cnc4c(N)nc(Cl)nc43)[C@@H](F)[C@@H]2O1 (single isomer, unassigned) [drawing 653]
EC50 ([1]; plates incubated for 72 hours): ≤ 1 µM
Emax ([1]; plates incubated for 72 hours): A (A=0-10%)

SMILES: CCOC(=O)C(C)NP1(=O)OCC2O[C@@H](n3cnc4c(N)nc(Cl)nc43)[C@@H](F)[C@@H]2O1 (single isomer, unassigned) [drawing 654]
EC50 ([1]; plates incubated for 72 hours): 10 to 20 µM
Emax ([1]; plates incubated for 72 hours): B (B=10-20%)

SMILES: CC(C)(CO)C(=O)SCCOP(=O)(NCc1ccccc1)OC[C@H]1O[C@@H](n2cnc3c(N)nc(Cl)nc32)C(F)C1O (single isomer, unassigned) [drawing 657]
EC50 [1, 5]: ≤ 1 µM
Emax [1, 6]: 10 to 20%
